Data from publication PMC11480295, “Hypecotumines A-D, new isoquinoline alkaloids with potential PCSK9 inhibition activity from Hypecoum erectum L” (Natural Products and Bioprospecting, 2024).

Biological target: PCSK9 (Homo sapiens, UniProt Q8NBP7)
Test: SPR (Biacore T200, PCSK9 immobilized on CM5 chip)
Type: binding

Chain of PCSK9 (Q8NBP7 31-152): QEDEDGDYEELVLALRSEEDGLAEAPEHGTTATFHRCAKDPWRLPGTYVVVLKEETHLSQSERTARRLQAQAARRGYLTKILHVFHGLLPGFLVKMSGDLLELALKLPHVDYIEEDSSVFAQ
Chain of PCSK9 (Q8NBP7 153-692): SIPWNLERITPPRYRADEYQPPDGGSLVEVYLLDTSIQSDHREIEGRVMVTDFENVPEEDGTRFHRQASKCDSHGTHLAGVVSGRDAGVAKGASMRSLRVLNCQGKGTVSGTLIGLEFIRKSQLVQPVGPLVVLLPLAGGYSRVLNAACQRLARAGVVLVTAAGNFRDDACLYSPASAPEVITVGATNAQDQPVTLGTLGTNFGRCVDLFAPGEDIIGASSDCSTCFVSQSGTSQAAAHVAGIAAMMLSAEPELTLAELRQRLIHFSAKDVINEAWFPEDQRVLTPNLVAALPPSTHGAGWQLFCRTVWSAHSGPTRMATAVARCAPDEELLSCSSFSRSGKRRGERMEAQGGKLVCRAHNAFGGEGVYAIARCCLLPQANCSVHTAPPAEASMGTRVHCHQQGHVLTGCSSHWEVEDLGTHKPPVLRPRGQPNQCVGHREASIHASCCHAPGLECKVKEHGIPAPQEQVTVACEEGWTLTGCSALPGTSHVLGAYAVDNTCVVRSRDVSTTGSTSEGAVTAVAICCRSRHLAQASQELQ

Kd [µM]	Compound
306	C=C(C1=[N+](C)CCc2cc3c(cc21)OCO3)c1ccc(OC)c(O)c1C(=O)[O-] [compound 1, Hypecotumine A]
248	C=C(C1=[N+](C)CCc2cc(OC)c(OC)cc21)c1ccc(OC)c(O)c1C(=O)[O-] [compound 2, Hypecotumine B]
95.1	C=C(C1=[N+](C)CCc2cc(OC)c(OC)cc21)c1ccc2c(c1C(=O)[O-])OCO2 [compound 3, Hypecotumine C]
59.9	C=C(C1=[N+](C)CCc2cc3c(cc21)OCO3)c1ccc2c(c1C(=O)[O-])OCO2 [compound 4, Hypecotumine D]
